Experimental data from PMC10743653, “Combined In Silico and In Vitro Analyses to Assess the Anticancer Potential of Thiazolidinedione–Thiosemicarbazone Hybrid Molecules” (International Journal of Molecular Sciences, 2023).

Tests used:
[1] = tested on: HepG2 cells; assay: MTT assay, HepG2; format: cell-based, human; conditions: for IC50: Homo sapiens, HepG2, MTT, 24 h treatment, mean ± SD; for SI (selectivity index): IC50 CCD 841 CoTr divided by IC50 HepG2
Description: (§1) The effects of TZD–TSCs 2–5 on the cellular viability of a panel of cell lines were investigated through an 3-(4,5-dimethylthiazol-2-yl)-2,5-diphenyl-2H-tetrazolium bromide (MTT) assay, following a 24 h treatment with the compounds. The panel consisted of three solid tumor cells: T98G (glioblastoma multiforme), HepG2 (hepatocellular carcinoma, epithelial), and HT29 (colon adenocarcinoma, epithelial), as well as noncancerous cells CCD 841 CoTr (normal colon, epithelial).
(§2) Primary single dose screenings of TZD–TSCs 2–5 were performed at a concentration of 200 μg/mL, and those that elicited a greater than 80% inhibition of cell proliferation were analyzed at several concentrations, to find their half-maximal inhibitory concentration (IC50). The IC50 values, reported as the mean ± SD in Table 2, indicate the concentration of the tested compound that inhibits the growth/viability of the cancer cell population by 50%. In this specific case of an MTT assay, which measures the activity of mitochondrial dehydrogenases (as an indicator of cell viability), the IC50 values stand for the concentration that inhibits the metabolic activity of cells by 50%.
(§3) Human colon adenocarcinoma cells, HT29 (ATCC no. HTB-38), derived from a grade I tumor, were cultured in roswell park memorial institute Medium (RPMI) 1640 medium, supplemented with 10% fetal calf serum (FCS) (GibcoTM, Paisley, UK) and antibiotics (100 U/mL penicillin and 100 μg/mL streptomycin) (Sigma, St. Louis, MO), at 37 °C in a humidified atmosphere with 5% CO2. Human normal colon epithelial cells, CCD 841 CoTr (ATCC no. CRL-1807), were cultured in RPMI 1640 + dulbecco’s modified eagle medium (DMEM) (1:1) medium (Sigma, St. Louis, MO), supplemented with 10% FCS and antibiotics, at 34 °C in a 5% CO2/95% air atmosphere. Human glioblastoma T98G cells were cultured in Dulbecco’s Modified Eagle’s Medium (DMEM) (Sigma Aldrich, St. Louis, MO, USA), supplemented with 10% fetal bovine serum (FBS), penicillin (100 U/mL), and streptomycin (100 μg/mL). Human hepatocellular carcinoma cells, HepG2, were maintained in Eagle’s Minimum Essential Medium, supplemented with 10% FBS, penicillin (100 U/mL), and streptomycin (100 μg/mL).
(§4) After 24 h of incubation of the cells with the tested compounds in 100 μL of culture medium, MTT solution (5 mg/mL, 25 μL/well) was added and incubated for an additional 3 h. The purple crystals of formazan which formed in the medium were solubilized overnight in 10% sodium dodecyl sulphate (SDS) in a 0.01 M HCl mixture. The product was quantified spectrophotometrically by measuring its absorbance at 570 nm using an Emax Microplate Reader (Molecular Devices Corporation, Menlo Park, CA, USA).

[2] = tested on: HT29 cells; assay: MTT assay, HT29; format: cell-based, human; conditions: for IC50: Homo sapiens, HT-29, HT29, MTT, 24 h treatment, mean ± SD; for SI (selectivity index): IC50 CCD 841 CoTr divided by IC50 HT29
Description: as §1, §2, §3, §4

[3] = tested on: T98G cells; assay: MTT assay, T98G; format: cell-based, human; conditions: for IC50: Homo sapiens, T98G, MTT, 24 h treatment, mean ± SD; for SI (selectivity index): IC50 CCD 841 CoTr divided by IC50 T98G
Description: as §1, §2, §3, §4

[4] = Ferric-reducing antioxidant power (FRAP) assay
Text: (§5) Antioxidant activity is a complex procedure, usually happening through several multiple or predominant chemical mechanisms (i.e., hydrogen atom transfer (HAT), single electron transfer (SET), and the ability to chelate transition metals), and it is influenced by many factors, which cannot be fully described with one single method. Therefore, it is important to perform more than one type of measurement to take into account the various mechanisms of antioxidant action. In this study, to assess the antioxidant activity of TZD–TSCs 2–5, two complementary tests were used: a DPPH (2,2-diphenyl-1-picrylhydrazyl) free radical-scavenging ability assay, that detects the HAT and SET mechanisms, and a FRAP (ferric reducing antioxidant power) assay, that prefers the […] mechanism. The antioxidant powers of 2–5 were compared to standard antioxidants, such as the water-soluble synthetic analogue of vitamin E (Trolox) and ascorbic acid (vitamin C).
Each compound concentration (25, 75, 150, and 200 μg/mL, respectively) was dissolved in Milli-Q water and mixed with an equal volume of 0.2 M sodium phosphate buffer (pH 6.6) and 1% potassium ferricyanide. The mixture was incubated for 30 min at 37 °C. Thereafter, 10% trichloroacetic acid (w/v) was added and the mixture was centrifuged at 1000 g for 5 min. One mL of the upper layer was mixed with an equal volume of Milli-Q water and 0.1% ferric chloride. The absorbance was read at 700 nm using an EL800 Universal Microplate Reader (BioTek Instruments, Winooski, VT, USA). Ascorbic acid (0–150 μg/mL) was used as a positive control.

[5] = tested on: HT29 cells; assay: Nitric oxide measurement (Griess), HT29; format: cell-based, human
Description: (§6) Nitrate, i.e., a stable end product of NO, was measured in culture supernatants with a spectrophotometric method based on the Griess reaction. Culture supernatants were collected from the cell cultures treated with specific concentrations of the tested compounds (25, 75, 150, and 200 μg/mL, respectively). Briefly, 100 μL of the culture supernatant was placed in 96-well flat-bottomed plates in triplicate and incubated with 100 μL of Griess reagent (1% sulfanilamide/0.1% N-(1-naphthyl)ethylenediamine dihydrochloride) in 3% H3PO4 at room temperature for 10 min. The optical density was measured at 550 nm using a microplate reader. A standard curve was prepared using 0.5–25 μM sodium nitrite (NaNO2) for calibration.

[6] = DPPH free radical scavenging test
Text: as §5
The free radical scavenging activity of […] was measured by the DPPH assay. Briefly, 100 μl of DPPH solution (0.2 mg/mL in ethanol) was added to 100 μL of the tested compound concentrations (25, 75, 150, and 200 μg/mL, respectively). Trolox, at increasing concentrations (1–50 μg/mL), was used as a standard. After 20 min of incubation at room temperature, the absorbances of the solutions were measured at 515 nm. The lower the absorbance, the higher the free radical scavenging activity of the compound. The activity of each compound was determined by comparing its absorbance with that of the standard.
The ability of the compounds to scavenge the DPPH radical was calculated by the following formula:DPPH scavenging effect (%) = [(Xcontrol − Xcompound/Xcontrol) × 100], where Xcontrol is the absorbance of the control and Xcompound is the absorbance in the presence of TZD-TSCs preparations.

[7] = tested on: CCD 841 CoTr cells; assay: MTT assay, normal colon epithelial cells; format: cell-based; conditions: Homo sapiens, CCD 841 CoTr (noncancerous), 24 h treatment, mean ± SD
Description: as §1, §2, §3, §4

[8] = tested on: CCD 841 CoTr cells; assay: Nitric oxide measurement (Griess), CCD 841 CoTr; format: cell-based, human; conditions: 200 μg/mL
Description: as §6

[9] = tested on: PPARγ; parameters: method as in PMID 34006099; conditions: cited from earlier work
[10] = tested on: HDAC4; parameters: method as in PMID 34006099; conditions: cited from earlier work
[11] = tested on: CEM cells; parameters: method as in PMID 34006099; conditions: read-out: IC50, antiproliferative effects against CEM cells; cited from earlier work

Structure (SMILES)	IC50 [1] [µM]	IC50 [2] [µM]	IC50 [3] [µM]	SI (selectivity index) [1]	SI (selectivity index) [2]	SI (selectivity index) [3]	FRAP reduction value corresponding to concentration of ascorbic acid ([4]; compound at 25 μg/mL) [µg/mL]	FRAP reduction value corresponding to concentration of ascorbic acid ([4]; compound at 75 μg/mL) [µg/mL]	FRAP reduction value corresponding to concentration of ascorbic acid ([4]; compound at 150 μg/mL) [µg/mL]	FRAP reduction value corresponding to concentration of ascorbic acid ([4]; compound at 200 μg/mL) [µg/mL]	NO production, [NO2^−] ([5]; HT29, 25 μg/mL)	DPPH reduction value corresponding to concentration of Trolox ([6]; compound at 25 μg/mL) [µg/mL]	DPPH reduction value corresponding to concentration of Trolox ([6]; compound at 75 μg/mL) [µg/mL]	DPPH reduction value corresponding to concentration of Trolox ([6]; compound at 150 μg/mL) [µg/mL]	DPPH reduction value corresponding to concentration of Trolox ([6]; compound at 200 μg/mL) [µg/mL]	IC50 [7] [µM]	NO production, [NO2^−] [8] [µM]	further results
COc1cc([C@@H]2c3cc4c(cc3[C@@H](O[C@@H]3O[C@@H]5CO[C@@H](C)O[C@H]5[C@H](O)[C@H]3O)[C@H]3COC(=O)[C@H]23)OCO4)cc(OC)c1O [Etoposide, reference compound]	61.9 ± 2.97	161 ± 8.51	> 160															
O=C(C=C1SC(=O)NC1=O)Oc1ccc(C=NNC(=S)Nc2ccc(Cl)cc2Cl)cc1 [TZD–TSC 5]	13.9 ± 0.59	119 ± 10.7	93.6 ± 3.45	5.35	0.62	0.79	2.70	2.43	4.59	9.19	~ 0.272 μM	0.768	2.689	9.964	15.177	74.2 ± 2.3	0.272	NO production, [NO2^−] ([5]; HT29, 200 μg/mL): ~ 0.272 μM
O=C(C=C1SC(=O)NC1=O)Oc1cccc(C=NNC(=S)Nc2ccccc2Cl)c1 [TZD–TSC 4]	20.1 ± 1.19	117 ± 9.37	42.4 ± 2.23	4.34	0.75	2.06	1.62	5.95	4.05	5.41	0.558 µM	2.834	6.381	13.982	17.638	87.3 ± 5.06	0.639	
O=C(COc1ccc2cc(/C=C3/SC(=O)NC3=O)ccc2c1)Nc1c(F)cc(F)cc1Br [compound 1]																		Activity toward PPARγ [9]: low micromolar concentration; Activity toward HDAC4 [10]: low micromolar concentration; IC50 [11]: 9.6 µM
